Data published in patent US9339034B2, “Use of thaxtomin for selective control of rice and aquatic based weeds” (MARRONE BIO INNOVATIONS, INC., priority 2009, dated 2016).

Legend:
LEF = experiment: Greenhouse pot study, weed control; assay type: in vivo
EO2 = experiment: Greenhouse pot study, weed control; assay type: in vivo, Echinochloa spp.
Source text: (§1) Moderate suppression (60%) was noted on Echinochloa colonum at 500 g a.i. per hectare.

ECC = experiment: Greenhouse pot study, weed control; assay type: in vivo, Echinochloa colonum
Source text: as §1

direct-seeded rice = experiment: First study, crop safety; assay type: in vivo; settings: rates up to 750 g a.i. per hectare
Echinochloa colonum = experiment: First study, weed control; assay type: in vivo; settings: 500-1000 g a.i. per hectare
Ammania sp = experiment: Pot study, spray of pure thaxtomin A solutions, % control; assay type: in vivo, redstem; Ammannia spp.
Procedure: (§2) A pot study was conducted to test the phytotoxicity of thaxtomin A on broadleaved, sedge and grass weeds. Seeds of two most common broadleaf (redstem; Ammannia spp. and common waterplantain; Alisma plantago-aquatica), sedge (smallflower umbrella sedge; Cyperus diiformis) and grass (sprangletop: Leptochloa uninervia) weeds each were planted in a plastic pots filled with heavy clay soil. The less than 1-inch tall plants grown under growth lights (12-h light/12-h dark) at 28° C. were sprayed with pure thaxtomin A solutions containing 0.05, 0.1, 0.2, and 0.4 mg thaxtomin A per mL of solvent (4% ethanol and 0.2% non-ionic surfactant). A solution of 4% ethanol+0.2% non-ionic surfactant without thaxtomin A was used as a control treatment. Same treatments were applied to three-inch tall rice plants grown submerged under growth lights at 28° C. […] All treatments were applied in three replicates. Treated plants were kept at 28° C. under growth lights and observed at three time points—5, 12 and 21 days after treatment—for visual symptoms of phytotoxicity and % control.

Leptochloa sp = experiment: as above; assay type: in vivo, sprangletop: Leptochloa uninervia
Procedure: as §2

CN1C(=O)[C@](O)(Cc2cccc(O)c2)N(C)C(=O)[C@@H]1Cc1c[nH]c2cccc([N+](=O)[O-])c12 [thaxtomin A]
% control (LEF; 64 g/ha): 0%
% control (LEF; 125 g/ha): 50%
% control (LEF; 250 g/ha): 60%
% control (LEF; 500 g/ha): 70%
% control (LEF; 1000 g/ha): 100%
% control (EO2; EO2, 64 g/ha): 0%
% control (EO2; EO2, 125 g/ha): 0%
% control (EO2; EO2, 250 g/ha): 20%
% control (EO2; EO2, 500 g/ha): 20%
% control (EO2; EO2, 1000 g/ha): 30%
% control (ECC; 64 g/ha): 0%
% control (ECC; 125 g/ha): 0%
% control (ECC; 250 g/ha): 35%
% control (ECC; 500 g/ha): 60%
% control (ECC; 1000 g/ha): 60%
growth reductions to direct-seeded rice (direct-seeded rice): only slight growth reductions
% control (Echinochloa colonum): 90-100%
% control (Ammania sp; Ammania sp, 5 DAYS, 0.05 mg/mL in 4% ethanol): 0%
% control (Ammania sp; Ammania sp, 5 DAYS, 0.1 mg/mL in 4% ethanol): 0%
% control (Ammania sp; Ammania sp, 5 DAYS, 0.2 mg/mL in 4% ethanol): 0%
% control (Ammania sp; Ammania sp, 5 DAYS, 0.4 mg/mL in 4% ethanol): 0%
% control (Ammania sp; Ammania sp, 12 DAYS, 0.05 mg/mL in 4% ethanol): 0a %
% control (Ammania sp; Ammania sp, 12 DAYS, 0.1 mg/mL in 4% ethanol): 0a %
% control (Ammania sp; Ammania sp, 12 DAYS, 0.2 mg/mL in 4% ethanol): 0a %
% control (Ammania sp; Ammania sp, 12 DAYS, 0.4 mg/mL in 4% ethanol): 3b %
% control (Ammania sp; Ammania sp, 21 DAYS, 0.05 mg/mL in 4% ethanol): 63b %
% control (Ammania sp; Ammania sp, 21 DAYS, 0.1 mg/mL in 4% ethanol): 53b %
% control (Ammania sp; Ammania sp, 21 DAYS, 0.2 mg/mL in 4% ethanol): 70b %
% control (Ammania sp; Ammania sp, 21 DAYS, 0.4 mg/mL in 4% ethanol): 75b %
% control (Ammania sp; red stem (Ammania sp.), highest concentration (0.4 mg/mL)): 75-80%
% control (Leptochloa sp; 5 DAYS, 0.05 mg/mL in 4% ethanol): 0%
% control (Leptochloa sp; 5 DAYS, 0.1 mg/mL in 4% ethanol): 0%
% control (Leptochloa sp; 5 DAYS, 0.2 mg/mL in 4% ethanol): 0%
% control (Leptochloa sp; 5 DAYS, 0.4 mg/mL in 4% ethanol): 0%
% control (Leptochloa sp; 12 DAYS, 0.05 mg/mL in 4% ethanol): 0a %
% control (Leptochloa sp; 12 DAYS, 0.1 mg/mL in 4% ethanol): 2a %
% control (Leptochloa sp; 12 DAYS, 0.2 mg/mL in 4% ethanol): 10b %
% control (Leptochloa sp; 12 DAYS, 0.4 mg/mL in 4% ethanol): 10b %
% control (Leptochloa sp; 21 DAYS, 0.05 mg/mL in 4% ethanol): 0a %
% control (Leptochloa sp; 21 DAYS, 0.1 mg/mL in 4% ethanol): 3a %
% control (Leptochloa sp; 21 DAYS, 0.2 mg/mL in 4% ethanol): 12a %
% control (Leptochloa sp; 21 DAYS, 0.4 mg/mL in 4% ethanol, listed as Thaxtomin): 17a %
% control (Leptochloa sp; 21 DAYS, 0.4 mg/mL in 4% ethanol, listed as Thaxtomin A): 17%
